Data reported in ChEMBL document CHEMBL1127279, “1,3-Oxazino[4,5-b]indole-2,4-(1H,9H)-diones and 5,6-dimethylpyrrolo-[2,3-d]-1,3-oxazin-2,4-(1H,7H)-diones as serine protease inhibitors” (Bioorg Med Chem Lett, 1994).

Tests used:
[1] = target: T1, Neutrophil elastase (Homo sapiens, UniProt P08246); assay: In vitro inhibition of human leukocyte elastase.
T1 sequence (P08246 whole entry): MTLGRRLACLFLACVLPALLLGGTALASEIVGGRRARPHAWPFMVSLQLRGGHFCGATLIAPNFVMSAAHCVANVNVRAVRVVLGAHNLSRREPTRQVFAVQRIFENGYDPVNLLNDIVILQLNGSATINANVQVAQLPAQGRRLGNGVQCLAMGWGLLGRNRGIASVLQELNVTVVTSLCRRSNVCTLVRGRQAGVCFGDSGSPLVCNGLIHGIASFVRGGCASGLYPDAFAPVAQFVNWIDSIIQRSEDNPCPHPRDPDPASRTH

[2] = target: Pancreatic elastase (Sus scrofa, UniProt P08419+P00772); assay: Inhibitory activity against porcine pancreatic elastase using Suc-Ala-Ala-Ala-pNA (416 uM) as substrate; type: protein assay
[3] = target: T2, Chymotrypsinogen A (Bos taurus, UniProt P00766); assay: Inhibitory activity against chymotrypsin using Suc-Ala-Ala-Pro-Phe-pNA (416 uM) as substrate;No Inhibition; parameters: species or system Sus scrofa
[4] = target: T1, Neutrophil elastase; assay: Inhibitory activity against human leukocyte elastase using MeO-Suc-Ala-Ala-Pro-Val-pNA (416 uM) as substrate;No Inhibition
[5] = target: T2, Chymotrypsinogen A; assay: Inhibitory activity against chymotrypsin using Suc-Ala-Ala-Pro-Phe-pNA (416 uM) as substrate; No Inhibition; parameters: species or system Sus scrofa
[6] = target: T1, Neutrophil elastase; assay: Inhibitory activity against human leukocyte elastase using MeO-Suc-Ala-Ala-Pro-Val-pNA (416 uM) as substrate
[7] = target: T2, Chymotrypsinogen A; assay: Inhibitory activity against chymotrypsin using Suc-Ala-Ala-Pro-Phe-pNA (416 uM) as substrate; parameters: species or system Sus scrofa

Structure (SMILES) | IC50 [1] [µM] | also measured
CCCn1c2ccc(OC)cc2c2c(=O)oc(=O)[nH]c21 | > 1000 | –
CC(=O)Oc1ccc2c(c1)c1c(=O)oc(=O)[nH]c1n2CCCc1ccccc1 | 305 | IC50 [2]: > 1000 µM
CC(=O)Oc1ccc2c(c1)c1c(=O)oc(=O)[nH]c1n2Cc1ccccc1 | 75 | –
CC(=O)Oc1ccc2c(c1)c1c(=O)oc(=O)[nH]c1n2C1CCCCC1 | 454 | –
CCCCn1c2ccc(OC(C)=O)cc2c2c(=O)oc(=O)[nH]c21 | 810 | IC50 [2]: > 1000 µM
COC(Cn1c2ccc(OC(C)=O)cc2c2c(=O)oc(=O)[nH]c21)OC | 742 | –
COCCn1c2ccc(OC(C)=O)cc2c2c(=O)oc(=O)[nH]c21 | > 1000 | IC50 [3]: Not Active
COC(Cn1c(C)c(C)c2c(=O)oc(=O)[nH]c21)OC | – | IC50 [4]: Not Active; IC50 [5]: Not Active
Cc1c(C)n(Cc2ccccn2)c2[nH]c(=O)oc(=O)c12 | – | IC50 [4]: Not Active
COc1ccc2c(c1)c1c(=O)oc(=O)[nH]c1n2CCc1ccccc1 | – | IC50 [6]: > 1000 µM
CCCCn1c(C)c(C)c2c(=O)oc(=O)[nH]c21 | > 1000 | –
CCCn1c(C)c(C)c2c(=O)oc(=O)[nH]c21 | – | IC50 [4]: Not Active; IC50 [5]: Not Active
COc1ccc2c(c1)c1c(=O)oc(=O)[nH]c1n2Cc1ccccc1 | > 1000 | –
CC(=O)Oc1ccc2c(c1)c1c(=O)oc(=O)[nH]c1n2CCc1ccccc1 | 92 | IC50 [2]: 833 µM
Cc1c(C)n(CCCc2ccccc2)c2[nH]c(=O)oc(=O)c12 | – | IC50 ([4]; read-out: IC50): 895 µM
COc1ccc2c(c1)c1c(=O)oc(=O)[nH]c1n2CC(OC)OC | > 1000 | –
COCCn1c2ccc(OC)cc2c2c(=O)oc(=O)[nH]c21 | > 1000 | IC50 [5]: Not Active
Cc1c(C)n(Cc2ccccc2)c2[nH]c(=O)oc(=O)c12 | – | IC50 [4]: Not Active
CC(=O)Oc1ccc2c(c1)c1c(=O)oc(=O)[nH]c1n2Cc1ccccn1 | 292 | –
Cc1c(C)n(CCc2ccccc2)c2[nH]c(=O)oc(=O)c12 | – | IC50 [4]: Not Active
COc1ccc2c(c1)c1c(=O)oc(=O)[nH]c1n2Cc1ccccn1 | > 1000 | IC50 [7]: 512 µM
COc1ccc2c(c1)c1c(=O)oc(=O)[nH]c1n2CCCc1ccccc1 | – | IC50 [6]: 989 µM
Cc1c(C)n(C2CCCCC2)c2[nH]c(=O)oc(=O)c12 | > 1000 | –
CCCn1c2ccc(OC(C)=O)cc2c2c(=O)oc(=O)[nH]c21 | 665 | –
COc1ccc2c(c1)c1c(=O)oc(=O)[nH]c1n2C1CCCCC1 | > 1000 | –
CCCCn1c2ccc(OC)cc2c2c(=O)oc(=O)[nH]c21 | > 1000 | –
COCCn1c(C)c(C)c2c(=O)oc(=O)[nH]c21 | – | IC50 [4]: Not Active; IC50 [5]: Not Active
